The text below walks through data of patent US20250221413A1, “Use and Preparation Method of Sulfoxamyl, and Oxidation System” (priority 2023, published 2025).

Series [1] can be described thus: Acute skin toxicity test (limit test). The class given is in vivo, SD rats. The note with it: both sexes, rat, in vivo, topical, 2000 mg/kg; SD rats, 24 h exposure, 14 days observation; read-out: acute percutaneous toxicity LD50. The protocol:
(§1) Materials: the test agent 98% sulfoxamyl technical, batch number 20230708-1, was provided by Ningxia Hugerise Chemical Co., Ltd. Experimental animals: SPF-grade SD rats, half male and half female, weighing 180 g to 220 g, were provided by Jinan Pengyue Experimental Animal Breeding Co., Ltd., license number SCXK (Lu) 20190003. Rearing environment: the rats were housed in an SPF-grade animal room with free access to water and food, a temperature of 20° C. to 25° C., a humidity of 40% to 60%, and a 12 h/12 h light cycle. Feed: conventional pellet feed was provided by Jinan Pengyue Experimental Animal Breeding Co., Ltd.
(§2) The test was conducted in accordance with “Toxicological test methods of pesticides for registration, GB15670.5-2017”, “Acute toxicity test, GB15193.3-2003” and relevant acute toxicity research data.
(§3) Method: the sulfoxamyl was ground into powder, passed through a 200-mesh sieve, and fully moistened with 0.5% tragacanth solution to ensure desirable contact between the drug and the skin. The dose limit of the drug's transdermal toxicity was preliminarily determined through a limit test. According to the “Toxicological test methods of pesticides for registration, GB/T 15670.5-2017”, 2,000 mg/kg was selected as the dose limit. 10 SD rats were selected, half male and half female. After removing the fur and preparing the skin on the midline of the rats' backs, the prepared skin area was 36 cm^2 to 40 cm^2. The drug was evenly applied to the fur-removed area and covered and fixed with multiple layers of sterile gauze; after 24 h of exposure to the poison, the residual drug on the skin was removed; the rats were observed once a day for 14 consecutive days, and their poisoning reaction, development process, and death were recorded.

In a further series the test system is SD rats. The series is described as follows: Acute skin toxicity test (limit test). The class given is in vivo. As for the experimental part:
as §1, §2, §3

Molecules are shown by their SMILES. Entries after “also recorded” stand apart in the source; their conditions may differ. Where only a bound is given, the exact number is not on record here.

Consider `CNC(=O)O/N=C(/C(=O)N(C)C)S(C)(=O)=O` [Sulfoxamyl, N,N-dimethyl-2-[[[(methylamino)carbonyl]oxy]imino]-2-(methylsulfonyl)acetamide], for which, in series [1], the median lethal dose (LD50) (usually the dose at which mortality reaches 50%) at 14 days was above 2000 mg/kg. For the same compound, the “percutaneous toxicity, in words” value in the series with SD rats (2,000 mg/kg) is listed as “no percutaneous toxicity”. The Main clinical symptom entry in the series on SD rats (2,000 mg/kg on skin, 10 SD rats) is “skin is intact, normal in color, and without redness or swelling”; in the series with SD rats (2,000 mg/kg on skin, 10 SD rats, listed as sulfoxamyl), “Normal”. The deaths entry with SD rats (2,000 mg/kg on skin, 10 SD rats, 14 days) is “none of the 10 rats die”. In addition, in the series on SD rats (GB15670-1995 classification), the “toxicity level (acute percutaneous)” value was “low toxic; also recorded: Low Toxicity”.
